Where two headings read alike, the source gives them in different places.
Experiments:
[1] = tested on: acute myeloid leukemia (AML); test: Clinical response of patients with AML to brequinar-containing composition; type: in vivo, human
DHODH [2] = biological target: DHODH (Mus musculus, UniProt O35435); test: DHO remaining in plasma of mice after brequinar 50 mg/kg (FIG. 6); conditions: at about 84 hours
[3] = Adverse events observed in subjects receiving brequinar intravenously once weekly; type: in vivo, human; conditions: 209 subjects, i.v. once week, median dose 1200 mg/m^2
DHODH [4] = biological target: DHODH (Homo sapiens, UniProt Q02127); conditions: for DHO plasma level threshold achieved: after a dose
[5] = mouse model of AML, daily administration of high doses; cited from earlier work
[6] = tested on: leukemia-initiating cell activity; conditions: mouse models of AML; only when elevated plasma levels are maintained for extended periods; cited from earlier work
[7] = 650 mg/m^2 brequinar (days 1, 8 and 15) with 75 mg/m^2 cisplatin (day 1); cited from earlier work
solid malignancies = conditions: 43 patients; patient with papillary carcinoma of the thyroid; cited from earlier work
[8] = Example 9, first patient, threshold 1,600 ng/mL
[9] = Example 10, second patient, threshold 2,900 ng/mL
[10] = Example 11, threshold 133 ng/mL

DHODH (Homo sapiens, UniProt Q02127), sequence (Q02127 whole entry): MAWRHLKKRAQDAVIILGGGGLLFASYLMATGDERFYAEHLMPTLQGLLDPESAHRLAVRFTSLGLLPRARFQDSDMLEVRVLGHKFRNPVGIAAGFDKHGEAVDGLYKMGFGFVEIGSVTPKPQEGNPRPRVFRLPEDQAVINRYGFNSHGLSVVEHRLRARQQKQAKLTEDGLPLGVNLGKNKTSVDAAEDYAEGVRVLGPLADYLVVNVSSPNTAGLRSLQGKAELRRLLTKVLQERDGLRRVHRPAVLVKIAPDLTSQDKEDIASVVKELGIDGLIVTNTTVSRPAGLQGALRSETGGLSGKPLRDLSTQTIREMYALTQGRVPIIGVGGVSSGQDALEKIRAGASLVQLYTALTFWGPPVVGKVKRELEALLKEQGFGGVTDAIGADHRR
DHODH (Mus musculus, UniProt O35435), sequence (O35435 whole entry): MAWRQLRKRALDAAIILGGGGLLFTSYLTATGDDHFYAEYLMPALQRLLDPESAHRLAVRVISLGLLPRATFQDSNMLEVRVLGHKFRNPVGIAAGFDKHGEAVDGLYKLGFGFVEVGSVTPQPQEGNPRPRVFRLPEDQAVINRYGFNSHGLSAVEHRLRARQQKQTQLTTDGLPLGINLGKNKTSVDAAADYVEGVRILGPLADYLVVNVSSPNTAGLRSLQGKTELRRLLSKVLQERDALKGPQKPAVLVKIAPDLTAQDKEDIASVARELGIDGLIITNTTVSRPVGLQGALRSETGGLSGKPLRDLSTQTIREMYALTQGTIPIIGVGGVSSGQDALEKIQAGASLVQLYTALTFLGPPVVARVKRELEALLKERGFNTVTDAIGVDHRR

Cc1c(-c2ccc(-c3ccccc3F)cc2)nc2ccc(F)cc2c1C(=O)O [Brequinar, 6-fluoro-2-(2′-fluoro-1,1′ biphenyl-4-yl)-3-methyl-4-quinoline carboxylic acid]
clinical response ([1]; Example 9, first patient, […], improvement of extramedullary hematopoiesis, shift to more differentiation in peripheral blasts): positive response
clinical response ([1]; Example 10, second patient, lowering of peripheral blasts, increase in absolute neutrophil count, greater differentiation of peripheral blasts): positive response
clinical response ([1]; Example 11, indicated by a trend towards differentiation of peripheral blasts): positive response
concentration of DHO remaining in the plasma (DHODH [2]): about 100 ng/mL
All Body Systems: No. of Patients Experiencing the AE, 5y Max Grade 1 [3]: 36
All Body Systems: No. of Patients Experiencing the AE, 5y Max Grade 2 [3]: 76
All Body Systems: No. of Patients Experiencing the AE, 5y Max Grade 3 [3]: 55
All Body Systems: No. of Patients Experiencing the AE, 5y Max Grade 4 [3]: 35
Anemia: No. of Patients Experiencing the AE, 5y Max Grade 1 [3]: 14
Anemia: No. of Patients Experiencing the AE, 5y Max Grade 2 [3]: 48
Anemia: No. of Patients Experiencing the AE, 5y Max Grade 3 [3]: 23
Anemia: No. of Patients Experiencing the AE, 5y Max Grade 4 [3]: 5
Anorexia: No. of Patients Experiencing the AE, 5y Max Grade 1 [3]: 11
Anorexia: No. of Patients Experiencing the AE, 5y Max Grade 2 [3]: 3
Anorexia: No. of Patients Experiencing the AE, 5y Max Grade 3 [3]: 1
Anorexia: No. of Patients Experiencing the AE, 5y Max Grade 4 [3]: 0
Constipation: No. of Patients Experiencing the AE, 5y Max Grade 1 [3]: 6
Constipation: No. of Patients Experiencing the AE, 5y Max Grade 2 [3]: 2
Constipation: No. of Patients Experiencing the AE, 5y Max Grade 3 [3]: 1
Constipation: No. of Patients Experiencing the AE, 5y Max Grade 4 [3]: 0
Diarrhea: No. of Patients Experiencing the AE, 5y Max Grade 1 [3]: 43
Diarrhea: No. of Patients Experiencing the AE, 5y Max Grade 2 [3]: 21
Diarrhea: No. of Patients Experiencing the AE, 5y Max Grade 3 [3]: 10
Diarrhea: No. of Patients Experiencing the AE, 5y Max Grade 4 [3]: 3
Dyspepsia: No. of Patients Experiencing the AE, 5y Max Grade 1 [3]: 6
Dyspepsia: No. of Patients Experiencing the AE, 5y Max Grade 2 [3]: 1
Dyspepsia: No. of Patients Experiencing the AE, 5y Max Grade 3 [3]: 0
Dyspepsia: No. of Patients Experiencing the AE, 5y Max Grade 4 [3]: 0
Fatigue: No. of Patients Experiencing the AE, 5y Max Grade 1 [3]: 23
Fatigue: No. of Patients Experiencing the AE, 5y Max Grade 2 [3]: 8
Fatigue: No. of Patients Experiencing the AE, 5y Max Grade 3 [3]: 2
Fatigue: No. of Patients Experiencing the AE, 5y Max Grade 4 [3]: 0
Fever: No. of Patients Experiencing the AE, 5y Max Grade 1 [3]: 4
Fever: No. of Patients Experiencing the AE, 5y Max Grade 2 [3]: 7
Fever: No. of Patients Experiencing the AE, 5y Max Grade 3 [3]: 0
Fever: No. of Patients Experiencing the AE, 5y Max Grade 4 [3]: 0
Granulocytopenia: No. of Patients Experiencing the AE, 5y Max Grade 1 [3]: 16
Granulocytopenia: No. of Patients Experiencing the AE, 5y Max Grade 2 [3]: 17
Granulocytopenia: No. of Patients Experiencing the AE, 5y Max Grade 3 [3]: 3
Granulocytopenia: No. of Patients Experiencing the AE, 5y Max Grade 4 [3]: 5
Headache: No. of Patients Experiencing the AE, 5y Max Grade 1 [3]: 4
Headache: No. of Patients Experiencing the AE, 5y Max Grade 2 [3]: 3
Headache: No. of Patients Experiencing the AE, 5y Max Grade 3 [3]: 0
Headache: No. of Patients Experiencing the AE, 5y Max Grade 4 [3]: 0
Infection: No. of Patients Experiencing the AE, 5y Max Grade 1 [3]: 4
Infection: No. of Patients Experiencing the AE, 5y Max Grade 2 [3]: 3
Infection: No. of Patients Experiencing the AE, 5y Max Grade 3 [3]: 0
Infection: No. of Patients Experiencing the AE, 5y Max Grade 4 [3]: 0
Leukopenia: No. of Patients Experiencing the AE, 5y Max Grade 1 [3]: 26
Leukopenia: No. of Patients Experiencing the AE, 5y Max Grade 2 [3]: 31
Leukopenia: No. of Patients Experiencing the AE, 5y Max Grade 3 [3]: 10
Leukopenia: No. of Patients Experiencing the AE, 5y Max Grade 4 [3]: 2
Mucositis: No. of Patients Experiencing the AE, 5y Max Grade 1 [3]: 23
Mucositis: No. of Patients Experiencing the AE, 5y Max Grade 2 [3]: 15
Mucositis: No. of Patients Experiencing the AE, 5y Max Grade 3 [3]: 11
Mucositis: No. of Patients Experiencing the AE, 5y Max Grade 4 [3]: 3
Nausea: No. of Patients Experiencing the AE, 5y Max Grade 1 [3]: 59
Nausea: No. of Patients Experiencing the AE, 5y Max Grade 2 [3]: 19
Nausea: No. of Patients Experiencing the AE, 5y Max Grade 3 [3]: 12
Nausea: No. of Patients Experiencing the AE, 5y Max Grade 4 [3]: 1
Pain Inject Site: No. of Patients Experiencing the AE, 5y Max Grade 1 [3]: 24
Pain Inject Site: No. of Patients Experiencing the AE, 5y Max Grade 2 [3]: 0
Pain Inject Site: No. of Patients Experiencing the AE, 5y Max Grade 3 [3]: 0
Pain Inject Site: No. of Patients Experiencing the AE, 5y Max Grade 4 [3]: 0
Pain, Abdominal: No. of Patients Experiencing the AE, 5y Max Grade 1 [3]: 4
Pain, Abdominal: No. of Patients Experiencing the AE, 5y Max Grade 2 [3]: 3
Pain, Abdominal: No. of Patients Experiencing the AE, 5y Max Grade 3 [3]: 1
Pain, Abdominal: No. of Patients Experiencing the AE, 5y Max Grade 4 [3]: 0
Rash: No. of Patients Experiencing the AE, 5y Max Grade 1 [3]: 26
Rash: No. of Patients Experiencing the AE, 5y Max Grade 2 [3]: 15
Rash: No. of Patients Experiencing the AE, 5y Max Grade 3 [3]: 9
Rash: No. of Patients Experiencing the AE, 5y Max Grade 4 [3]: 3
Somnolence: No. of Patients Experiencing the AE, 5y Max Grade 1 [3]: 7
Somnolence: No. of Patients Experiencing the AE, 5y Max Grade 2 [3]: 2
Somnolence: No. of Patients Experiencing the AE, 5y Max Grade 3 [3]: 0
Somnolence: No. of Patients Experiencing the AE, 5y Max Grade 4 [3]: 0
Stomatitis: No. of Patients Experiencing the AE, 5y Max Grade 1 [3]: 32
Stomatitis: No. of Patients Experiencing the AE, 5y Max Grade 2 [3]: 20
Stomatitis: No. of Patients Experiencing the AE, 5y Max Grade 3 [3]: 7
Stomatitis: No. of Patients Experiencing the AE, 5y Max Grade 4 [3]: 1
Thrombocytopenia: No. of Patients Experiencing the AE, 5y Max Grade 1 [3]: 26
Thrombocytopenia: No. of Patients Experiencing the AE, 5y Max Grade 2 [3]: 31
Thrombocytopenia: No. of Patients Experiencing the AE, 5y Max Grade 3 [3]: 16
Thrombocytopenia: No. of Patients Experiencing the AE, 5y Max Grade 4 [3]: 21
Vomit: No. of Patients Experiencing the AE, 5y Max Grade 1 [3]: 32
Vomit: No. of Patients Experiencing the AE, 5y Max Grade 2 [3]: 24
Vomit: No. of Patients Experiencing the AE, 5y Max Grade 3 [3]: 12
Vomit: No. of Patients Experiencing the AE, 5y Max Grade 4 [3]: 5
DHO plasma level threshold achieved (DHODH [4]; Example 9, first patient with AML): 1,600 ng/mL
time remained above the DHO threshold (DHODH [4]; [8]): 84 h
time to achieve the DHO plasma level threshold (DHODH [4]; [8]): less than 24 hours
DHO plasma level threshold achieved (DHODH [4]; Example 10, second patient with AML): 2,900 ng/mL
time remained above the DHO threshold (DHODH [4]; [9]): 84 h
time to achieve the DHO plasma level threshold (DHODH [4]; [9]): < 24 h
DHO plasma level threshold achieved (DHODH [4]; Example 11, patient with AML): 133 ng/mL
time remained above the DHO threshold (DHODH [4]; [10]): 84 h
time to achieve the DHO plasma level threshold (DHODH [4]; [10]): less than 2 hours
toxic effects [5]: weight loss, anemia, and thrombocytopenia
effect on leukemia-initiating cell activity [6]: decreases leukemia-initiating cell activity
effect of the combination on individual drug pharmacokinetic parameters [7]: without significant modifications of individual drug pharmacokinetic parameters

Cc1c(-c2ccc(-c3ccccc3F)cc2)nc2ccc(F)cc2c1C(=O)O [Brequinar sodium]
tumour response observed (solid malignancies): One mixed response

From patent publication US20210154186A1, “COMPOSITIONS AND METHODS FOR INHIBITING DIHYDROOROTATE DEHYDROGENASE” (Clear Creek Bio, Inc., priority 2018, published 2021)
